These results are taken from US20200129509A1, “DOSING REGIMEN” (Cyclacel Limited, priority 2018, published 2020).

Like-named read-outs stand apart in the source and are kept apart here.

The subject of one series is AML cell lines. Description: Combination of CNDAC with hypomethylating agents in AML cell lines. The settings on record: more apparent if cells are treated with hypomethylating agents first. In kind it is cell-based. The protocol:
Previous studies by the applicant have shown that in AML cell lines, the active metabolite of sapacitabine, CNDAC, is synergistic with hypomethylating agents and the synergy is more apparent if cells are treated with hypomethylating agents first. The present invention relates to the identification of new and previously undefined subgroups of AML patients for which treatment with an alternating regimen of sapacitabine and decitabine is particularly effective.

The test system of a further series is colon cancer. The settings on record: model of colon cancer; cited from earlier work.
In series [1] the test system is patients with a variety of cancers. The settings on record: phase I, humans; cited from earlier work.
The subject of series [2] is cell line that is resistant to cytarabine. To be noted: cited from earlier work.
Setting [3] is: Antecedent MDS/MPN No and WBC ≥10,000.
Setting [4] is: Antecedent MDS/MPN Yes and WBC <10,000.
Where [5] appears, read: SWOG Not unfavourable and WBC <10,000.
Where [6] appears, read: SWOG Unfavourable and WBC ≥10,000.
Setting [7] is: all randomized patients (n=241 per arm).

Text for AML patients: For 482 patients randomized to receive decitabine/sapacitabine (n=241) vs. decitabine only (n=241), randomization was stratified by the presence of antecedent MDS or MPN, peripheral white blood cell count (WBC <10,000 vs. ≥10,000) and bone marrow blast percentage (≥50% vs. <50%).

In the case of `N#C[C@H]1[C@H](O)[C@@H](CO)O[C@H]1n1ccc(N)nc1=O` [CNDAC, 2′-C-cyano-2′-deoxy-1-β-D-arabino-pentofuranosyl cytosine], in the series on AML cell lines, the “interaction with hypomethylating agents” value is “synergistic”.
`Nc1ncn([C@H]2C[C@H](O)[C@@H](CO)O2)c(=O)n1` [Decitabine, 4-amino-1-(2-deoxy-β-D-erythro-pentofuranosyl)-1,3,5-triazin-2(1H)-one]: the 1-year survival in the series on AML patients (setting [3]) is 36.7%; in the series on AML patients (setting [4]), 27.5%; with AML patients (Antecedent MDS/MPN: No) it was 35.5%; in the series with AML patients (Antecedent MDS/MPN: Yes), 32.9%; with AML patients (setting [5]), 31.8%; in the series on AML patients (setting [6]), 30.0%. The 1-year survival turned out to be 35.9% in the series on AML patients (SWOG category Not Unfavourable), 33.0% in the series with AML patients (SWOG category Unfavourable), 32.9% in the series on AML patients (patients with <10,000 WBC) and 38.5% with AML patients (patients with ≥10,000 WBC). For the same compound, the CR rate in the series with AML patients (setting [3]) is given as 18.4%; with AML patients (setting [4]) it was 2.5%; in the series on AML patients (Antecedent MDS/MPN: No) it was 12.9%; with AML patients (Antecedent MDS/MPN: Yes) it was 5.7%; in the series with AML patients (setting [5]) it was 5.7%; with AML patients (setting [6]), 0%. Moreover, the CR rate turned out to be 11.6% in the series on AML patients (SWOG category Not Unfavourable), 9.6% in the series with AML patients (SWOG category Unfavourable), 8.6% with AML patients (patients with <10,000 WBC) and 15.2% in the series with AML patients (patients with ≥10,000 WBC). Besides, the Median overall survival in the series on AML patients (setting [3]) is recorded as 5.5 months; in the series on AML patients (setting [4]), 4.9 months; in the series with AML patients (Antecedent MDS/MPN: No), 6.7 months; in the series on AML patients (Antecedent MDS/MPN: Yes), 5.0 months; in the series on AML patients (setting [5]) it was 5.6 months; in the series with AML patients (setting [6]), 3.0 months. The Median overall survival in the series on AML patients (SWOG category Not Unfavourable) was found to be 5.7 months; with AML patients (SWOG category Unfavourable), 5.7 months; in the series with AML patients (setting [7]), 5.7 months; in the series on AML patients (patients with <10,000 WBC), 5.8 months; in the series with AML patients (patients with ≥10,000 WBC), 5.5 months. The CR median duration with AML patients (Antecedent MDS/MPN: No) amounted to 10.4 months; with AML patients (Antecedent MDS/MPN: Yes) it was 7.1 months; in the series with AML patients (patients with <10,000 WBC), 10.4 months; in the series on AML patients (patients with ≥10,000 WBC), 10.1 months. In addition, in the series on AML patients (aged 80 and over, <10,000 WBC), the “Patients aged 80 and over, median overall survival” value is reported as 4.2 months. The “patients achieved CR” value in the series with AML patients (setting [7]) worked out at 10.8%.
As to `CCCCCCCCCCCCCCCC(=O)Nc1ccn([C@@H]2O[C@H](CO)[C@@H](O)[C@@H]2C#N)c(=O)n1` [Sapacitabine, 1-(2-C-cyano-2-deoxy-β-D-arabino-pentofuranosyl)-N^4-palmitoyl cytosine], in the series on colon cancer, the anticancer activity entry is recorded as “strong anticancer activity”; the “increasing survival and preventing spread of colon cancer metastases to the liver, compared with gemcitabine or 5-FU” value is recorded as “superior to either gemcitabine or 5-FU”. Moreover, in series [1], the dose-limiting toxicity entry was “myelosuppression” and the tolerability result is given as “well tolerated”.
By IC50 is commonly meant the midpoint of a concentration-inhibition curve. `Nc1ccn([C@@H]2O[C@H](CO)[C@@H](O)[C@@H]2O)c(=O)n1` [cytarabine]: the IC50 is 0.55 µM in series [2] (after 5-azacitidine (dCK upregulation)) and 12.5 µM in series [2] (before 5-azacitidine).
